Laboratory results as given in US20240368122A1, “JAK2 INHIBITORS AND METHODS OF USE THEREOF” (RELAY THERAPEUTICS, INC., priority 2021, published 2024).
Where two headings read alike, the source gives them in different places.

Key:
[1] = tested on: TF1 JAK2 V617F STAT3 reporter; experiment: Cellular TF1 STAT3 assay (luciferase reporter), JAK2 V617F; format: cell-based; details: read-out: Cell PD-TF1 JAK2 V617F STAT3 (IC50)
Outline: (§1)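 Measured in TF1 cells with mutant JAK2 V617F and STAT-responsive luciferase: 18-20 h compound exposure at 37 °C, then ONE-glo luminescence.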

[2] = tested on: TF1 JAK2 V617F STAT5 reporter; experiment: Cellular TF1 STAT5 assay (luciferase reporter), JAK2 V617F; format: cell-based; details: read-out: Cell PD TF1 V617F STAT5 (IC50)
Outline: as §1

[3] = target: T1, JAK2 JH2 WT (V536-D812) [W659A, W777A, F794H solubilizing mutations] (Homo sapiens, UniProt O60674, F794H/W659A/W777A); experiment: Surface Plasmon Resonance (SPR) binding assay, JAK2 JH2 domain
T1 construct: **JAK2 JH2 WT (V536-D812) [W659A, W777A, F794H solubilizing mutations]; C-thrombin-avi-His6; thrombin cleavage site (C); His6 (C); purchased Biortus
Outline: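 Kinetics came from 1:1 fits of single-cycle runs at 20 °C: four 3-fold dilutions from 5 uM for JH1 or 500 nM for JH2, 60 s association, and 300 s or 1200 s dissociation respectively. Protein was freshly captured per compound in the presence of 10 uM stabilizer compound, with running buffer of pH 7.5 HEPES/NaCl/glycerol/DTT plus 2% DMSO.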

[4] = Homo sapiens, TF-1, TF1 cells, JAK2 V617F

T1 sequence (O60674 536-812 W659A/W777A/F794H): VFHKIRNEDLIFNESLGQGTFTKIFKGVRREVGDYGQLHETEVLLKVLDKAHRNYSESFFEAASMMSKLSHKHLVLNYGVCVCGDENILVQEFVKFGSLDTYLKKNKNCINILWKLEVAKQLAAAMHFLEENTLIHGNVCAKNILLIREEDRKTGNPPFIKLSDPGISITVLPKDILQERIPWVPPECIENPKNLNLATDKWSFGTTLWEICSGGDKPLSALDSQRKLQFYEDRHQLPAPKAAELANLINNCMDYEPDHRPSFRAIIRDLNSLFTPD

SMILES	IC50 [1, 4] [nM]	IC50 [2, 4] [nM]	Kd [3] [nM]	Kd ([3]; SPR, JAK2 JH2 domain) [nM]	IC50 ([1]; TF1 JAK2 V617F) [nM]	IC50 ([2]; TF1 JAK2 V617F) [nM]
COc1c(Nc2cc(NC(=O)C3CC3)nnc2-c2ncc[nH]2)ccc(C)c1-c1ccc(C(=O)N(C)Cc2cc(C#N)ccn2)nc1 [Compound 371]	50 to 500	50 to 500	0.01 to 10	–	–	–
CNC(=O)c1nnc(NC(=O)C2CC2)cc1Nc1cccc(-c2ccc(C(=O)N(C)Cc3ncc(COC)s3)nc2)c1OC [Compound 244]	50 to 500	50 to 500	0.01 to 10	–	–	–
CNC(=O)c1nnc(NC(=O)C2CC2)cc1Nc1cc(F)cc(-c2ccc(C(=O)N(C)Cc3cc(C#N)ccn3)nc2)c1OC [Compound 112]	–	–	–	0.01 to 10	50 to 500	50 to 500
CNC(=O)c1nnc(NC(=O)C2CC2)cc1Nc1cc(F)cc(-c2ccc(C(=O)N(C)Cc3ccn(C)n3)nc2)c1OC [Compound 97]	–	–	–	0.01 to 10	50 to 500	50 to 500
CCOc1ccccc1CN(C)C(=O)c1ccc(-c2cccc(Nc3cc(NC(=O)C4CC4)nnc3C(=O)NC)c2OC)cn1 [Compound 83]	–	–	–	0.01 to 10	500 to 5000	500 to 5000
CNC(=O)c1cnc(NC(=O)C2CC2)cc1Nc1cccc(-c2ccc(C(=O)N(C)Cc3cc(C#N)ccn3)nc2)c1OC [Compound 176]	–	–	–	0.01 to 10	500 to 5000	50 to 500
CNC(=O)c1nnc(NC(=O)C2CC2)cc1Nc1cccc(-c2cnc(C(=O)N(CCOC)Cc3cccn(C)c3=O)c(F)c2)c1OC [Compound 21]	–	–	–	0.01 to 10	500 to 5000	500 to 5000
COc1c(Nc2cc(NC(=O)C3CC3)nnc2-c2ncc[nH]2)ccc(C)c1-c1ccc(C(=O)N(C)Cc2cn(C)nc2C)nc1 [Compound 376]	500 to 5000	500 to 5000	0.01 to 10	–	–	–
CNC(=O)c1nnc(NC(=O)C2CC2)cc1Nc1cccc(-c2cnc(C(=O)N(C)Cc3ccn(C)n3)c(F)c2)c1OC [Compound 53]	–	–	–	0.01 to 10	500 to 5000	500 to 5000
CNC(=O)c1nnc(NC(=O)C2CC2)cc1Nc1cccc(-c2cnc(C(=O)N(C)Cc3cccn(C)c3=O)cc2C)c1OC [Compound 24]	–	–	–	0.01 to 10	500 to 5000	500 to 5000
CNC(=O)c1nnc(NC(=O)C2CC2)cc1Nc1cccc(-c2ccc(C(=O)N(C)Cc3cn(C)nc3C)cc2)c1OC [Compound 221]	50 to 500	50 to 500	0.01 to 10	–	–	–
CNC(=O)c1nnc(NC(=O)C2CC2)cc1Nc1cccc(-c2ccc(C(=O)N(C)Cc3cc(C#N)ccn3)nc2C2CC2)c1OC [Compound 137]	–	–	–	10 to 50	5000 to 100000	5000 to 100000
CNC(=O)c1nnc(NC(=O)C2CC2)cc1Nc1cccc(-c2ccc(C(=O)N(C)CC3Cc4ccccc4CO3)nc2)c1OC (stereo not drawn) [Compound 54]	–	–	–	0.01 to 10	500 to 5000	5000 to 100000
CNC(=O)c1nnc(NC(=O)C2CC2)cc1Nc1cccc(-c2ccc(C(=O)N(C)Cc3nc(CN(C)C)cs3)nc2)c1OC [Compound 253]	5000 to 100000	500 to 5000	10 to 50	–	–	–
CNC(=O)c1nnc(NC(=O)C2CC2)cc1Nc1cccc(-c2ccc(C(=O)N(C)Cc3ccc(OC(F)F)cc3)nc2)c1OC [Compound 85]	–	–	–	0.01 to 10	500 to 5000	500 to 5000
CNC(=O)c1nnc(NC(=O)C2CC2)cc1Nc1cccc(-c2cnc(C(=O)N(C)Cc3ccon3)c(F)c2)c1OC [Compound 98]	–	–	–	0.01 to 10	500 to 5000	5000 to 100000
CNC(=O)c1nnc(NC(=O)C2CC2)cc1Nc1cccc(-c2ccc(C(=O)N(C)Cc3cnc4ccc(Cl)cn34)nc2)c1OC [Compound 31]	–	–	–	0.01 to 10	500 to 5000	500 to 5000

The next lines start with the values.

IC50 [1, 4] [nM]	IC50 [2, 4] [nM]	Kd [3] [nM]	Kd ([3]; SPR, JAK2 JH2 domain) [nM]	IC50 ([1]; TF1 JAK2 V617F) [nM]	IC50 ([2]; TF1 JAK2 V617F) [nM]	SMILES
50 to 500	50 to 500	0.01 to 10	–	–	–	CNC(=O)c1nnc(NC(=O)C2CC2)cc1Nc1cccc(-c2cnn(C3CN(Cc4cccc(C=O)n4)C3)c2)c1OC [Compound 324]
500 to 5000	500 to 5000	–	0.01 to 10	–	–	CNC(=O)c1nnc(NC(=O)C2CC2)cc1Nc1cccc(-c2cnn([C@H]3C[C@@H]([C@@H](O)c4ccccn4)C3)c2)c1OC (single isomer, unassigned) [Compound 398]
–	–	–	0.01 to 10	500 to 5000	500 to 5000	CNC(=O)c1nnc(NC(=O)C2CC2)cc1Nc1cccc(-c2ccc(C(=O)N(C)Cc3cnn(C)c3C)nc2)c1OC [Compound 166]
5000 to 100000	500 to 5000	0.01 to 10	–	–	–	CNC(=O)c1nnc(NC(=O)OC2CC2)cc1Nc1cccc(-c2cnn(C3CC(Oc4cccc(C#N)n4)C3)c2)c1OC (mixture of isomers) [Compound 345]
50 to 500	50 to 500	0.01 to 10	–	–	–	CNC(=O)c1nnc(NC(=O)C2CC2)cc1Nc1cccc(-c2cnn(C3CN(Cc4cccc(C(=O)N5CC(F)(F)C5)n4)C3)c2)c1OC [Compound 311]
–	–	–	0.01 to 10	50 to 500	50 to 500	CNC(=O)c1nnc(NC(=O)C2CC2)cc1Nc1cccc(-c2ccc(C(=O)N(C)Cc3cn(C)nc3C)nc2)c1OC [Compound 101]
50 to 500	50 to 500	0.01 to 10	–	–	–	CNC(=O)c1nnc(NC(=O)C2CC2)cc1Nc1cccc(-c2ccc(C(=O)N(C)Cc3cn(C(F)F)nc3C)nc2)c1OC [Compound 297]
–	–	–	0.01 to 10	50 to 500	50 to 500	CNC(=O)c1nnc(NC(=O)C2CC2)cc1Nc1cccc(-c2cnn(C3CN(Cc4cscn4)C3)c2)c1OC [Compound 124]
5000 to 100000	5000 to 100000	50 to 500	–	–	–	CNC(=O)c1nnc(NC(=O)C2CC2)cc1Nc1cccc(-c2ccc(C3CN(Cc4cnn(C)c4)C3)nc2)c1OC [Compound 264]
50 to 500	50 to 500	0.01 to 10	–	–	–	C=Cc1cccc(CN2CC(n3cc(-c4cccc(Nc5cc(NC(=O)C6CC6)nnc5C(=O)NC)c4OC)cn3)C2)n1 [Compound 368]
–	–	–	0.01 to 10	500 to 5000	500 to 5000	CCn1cncc1CN(C)C(=O)c1ccc(-c2cccc(Nc3cc(NC(=O)C4CC4)nnc3C(=O)NC)c2OC)cn1 [Compound 96]
–	–	–	0.01 to 10	500 to 5000	500 to 5000	CNC(=O)c1nnc(NC(=O)C2CC2)cc1Nc1cccc(-c2cnc(C(=O)N(C)Cc3ccccn3)nc2)c1OC [Compound 13]
500 to 5000	500 to 5000	0.01 to 10	–	–	–	CNC(=O)c1nnc(NC(=O)C2CC2)cc1Nc1cccc(-c2ccc(C(=O)N(C)Cc3cnn(C4CC4)c3C)nc2)c1OC [Compound 284]
500 to 5000	50 to 500	–	0.01 to 10	–	–	CNC(=O)c1nnc(NC(=O)C2CC2)cc1Nc1cccc(-c2cnn([C@H]3C[C@@H]([C@H](O)c4ccccn4)C3)c2)c1OC (single isomer, unassigned) [Compound 399]
500 to 5000	500 to 5000	0.01 to 10	–	–	–	CNC(=O)c1nnc(NC(=O)C2CC2)cc1Nc1cccc(-c2cnn([C@@H]3CCN(Cc4ccccn4)C3)c2)c1OC (single isomer, unassigned) [Compound 334]
50 to 500	50 to 500	10 to 50	–	–	–	CNC(=O)c1nnc(NC(=O)C2CC2)cc1Nc1cccc(-c2cnn(C3CN(Cc4cccc(C(O)C(C)C)n4)C3)c2)c1OC (stereo not drawn) [Compound 308]
5000 to 100000	500 to 5000	10 to 50	–	–	–	CNC(=O)c1nnc(NC(=O)C2CC2)cc1Nc1cccc(-c2ccc(C3CN(Cc4cnccc4C(F)F)C3)nc2)c1OC [Compound 291]
–	–	–	0.01 to 10	500 to 5000	500 to 5000	CNC(=O)c1nnc(NC(=O)C2CC2)cc1Nc1cccc(-c2cnc(C(=O)N(C)Cc3ccn(C)n3)nc2)c1OC [Compound 49]
